Common to all, as to assay type: cell-based, human
Experiment [1] deals with KRAS G12C mutant NCI-H358 cells. Put plainly: Cell proliferation inhibition experiment, 3D spheroid, CellTiter-Glo, NCI-H358. As to conditions: Homo sapiens, NCI-H358, 120 h, NCI-H358 (KRAS G12C mutant) 3D spheroid, 5 days with compound, CellTiter-Glo; read-out: H358 IC50. Summed up: (§1)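 3D spheroid format; 800 H358 / 400 A549 cells/well, 2% FBS. Cpd 3.16-fold series, 0.1% DMSO, 5 d. Readout CellTiter-Glo luminescence; IR% vs DMSO control and medium blank; 4-parameter IC50.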
A general note: ATP-based viability assays read luminescence as a measure of living cells.

Experiment [2] concerns A549 cells (KRAS G12S mutant). Put plainly: Cell proliferation inhibition experiment, 3D spheroid, CellTiter-Glo, A549. As to conditions: Homo sapiens, A549, 120 h, A549 (KRAS G12S mutant) 3D spheroid, 5 days with compound, CellTiter-Glo; read-out: A549 IC50. Summed up:
as §1

Experiment [3] concerns KRAS G12C mutant MIA PaCa-2 cells. Put plainly: Cell proliferation inhibition experiment, 3D spheroid, CellTiter-Glo, MIA PaCa-2. As to conditions: Homo sapiens, MIA PaCa-2, 120 h, 3D cell model in 384-well spheroid plate, 5 days, CellTiter-Glo; read-out: MIA-PaCa2 IC50. In short, it runs like this:
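Luminescent ATP read-out (CellTiter-Glo) after 5-day compound treatment of spheroids formed overnight from 200 MIA PaCa-2 cells/well; compounds in 3.16-fold series, 0.1% DMSO final. IC50 derived by four-parameter fit of percent inhibition, normalized to DMSO control and medium blank.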

As to `C=CC(=O)N1CCN2C(=O)c3c(N4CC(N5CCC(F)(F)C5)CC4(C)C)nc(-c4ccccc4F)c(Cl)c3OC[C@H]2C1` (stereo partly drawn) [Z532, (6aR)-8-acryloyl-4-chloro-1-(3,3-difluoro-5′,5′-dimethyl-[1,3′-bipyrrolidin]-1′-yl)-3-(2-fluorophenyl)-6,6a,7,8,9,10-hexahydro-12H-pyrazino[2,1-c]pyrido[3,4-f][1,4]oxazepin-12-one], the IC50 (as a rule, the concentration that gives 50% inhibition) amounted to 5.8 nM in experiment [1], 3170 nM in experiment [2] and 24.5 nM in experiment [3].
On the same counts, the results for `C=CC(=O)N1CCN2C(=O)c3c(N4CCN(C)C[C@@H]4C)nc(-c4c(F)cccc4Cl)c(Cl)c3OC[C@H]2C1` [Z547, (6aR)-8-acryloyl-4-chloro-3-(2-chloro-6-fluorophenyl)-1-((S)-2,4-dimethylpiperazin-1-yl)-6,6a,7,8,9,10-hexahydro-12H-pyrazino[2,1-c]pyrido[3,4-f][1,4]oxazepin-12-one] are 19.3 nM, 8160 nM and 43 nM.
Taken in the same sequence, the figures for `C=CC(=O)N1CCN2C(=O)c3c(N4CCN(C)[C@@H](C)[C@@H]4C)nc(-c4ccccc4F)c(Cl)c3OC[C@H]2C1` [Z653, (R)-8-acryloyl-4-chloro-3-(2-fluorophenyl)-1-((2S,3S)-2,3,4-trimethylpiperazin-1-yl)-6,6a,7,8,9,10-hexahydro-12H-pyrazino[2,1-c]pyrido[3,4-f][1,4]oxazepin-12 (6aH)-one] were 27.5 nM, 9310 nM and 53 nM.
`C=CC(=O)N1CCN2C(=O)c3c(N4C[C@H](N5CC(F)C5)CC4(C)C)nc(-c4ccccc4F)c(F)c3OC[C@H]2C1` [Z654-2, (R)-8-acryloyl-4-fluoro-1-((R)-4-(3-fluoroazetidin-1-yl)-2,2-dimethylpyrrolidin-1-yl)-3-(2-fluorophenyl)-6,6a,7,8,9,10-hexahydro-12H-pyrazino[2,1-c]pyrido[3,4-f][1,4]oxazepin-12-one]: the results for the IC50 in experiment [1], in experiment [2] and in experiment [3] were 15 nM, 8580 nM and 50.2 nM, respectively.
`C=CC(=O)N1CCN2C(=O)c3c(N4CC(N(C)CCO)CC4(C)C)nc(-c4ccccc4F)c(Cl)c3OC[C@H]2C1` (stereo partly drawn) [Z658, (6aR)-8-acryloyl-4-chloro-3-(2-fluorophenyl)-1-(4-((2-hydroxyethyl)(methyl)amino)-2,2-dimethylpyrrolidin-1-yl)-6,6a,7,8,9,10-hexahydro-12H-pyrazino[2,1-c]pyrido[3,4-f][1,4]oxazepin-12-one]: the IC50 was determined as 2.6 nM in experiment [1], 5020 nM in experiment [2] and 11.2 nM in experiment [3].
With `C=CC(=O)N1CCN2C(=O)c3c(N4CC(NC)CC4(C)C)nc(-c4ccccc4F)c(Cl)c3OC[C@H]2C1` (stereo partly drawn) [Z661, (6aR)-8-acryloyl-4-chloro-1-(2,2-dimethyl-4-(methylamino)pyrrolidin-1-yl)-3-(2-fluorophenyl)-6,6a,7,8,9,10-hexahydro-12H-pyrazino[2,1-c]pyrido[3,4-f][1,4]oxazepin-12-one], the IC50 in experiment [1] turned out to be 4 nM; in experiment [2] it was 2660 nM; in experiment [3], 13.1 nM.

(Values after patent US20230203060A1 (GENFLEET THERAPEUTICS (SHANGHAI) INC., priority 2020, published 2023).)
